Here are results for five molecules from patent EP0604355B1, “Akyl Substituted heterocyclic compounds” (N[…]/S, priority 1992, dated 1994).

Counter-ions that a name gives are not always drawn.

In experiment [1] the target is reuptake of dopamine in synaptosomes of rat forebrain (Rattus norvegicus, UniProt P23977). Put plainly: biochemical.
Experimental: Fresh whole forebrain (at 0-4°C) from male Wistar rats (150-200 g) is homogenized in a glass homogenizer with a Teflon pestle in 20 x volumes 0.32M sucrose. The homogenate is centrifuged at 1000 x g (∼2900 rpm) for 10 min. The pellet is discarded and the supernatant is used for uptake assays.
The samples are thoroughly mixed and incubated 10 min at 37°C followed by 2 min at 0°C. After incubation the samples are poured directly onto Whatman GF/C glass fibre filters under suction and immediately washed with 2 x 5 ml ice-cold 0.9% saline (NaCl) buffer. To the filter is added 3 ml of scintillation fluid, and the amount of radioactivity on the filters is determined by conventional liquid scintillation counting.
In experiment [2] the test system is haloperidol-induced catalepsy. Put plainly: animal or person. The settings on record: Rattus norvegicus, read-out: Minimum effective dose (peroral administration).
Text: The principle behind the haloperidol catalepsy test relates to the fact that the drug haloperidol (Serenase®) induces a receptor blockade of post synaptic dopamine receptors within the dopamine innervated corpus striatum of the rat brain. Following the blockade of active dopamine neurotransmission of the striatum a state of rigid immobility is induced, during which the rat can be placed in various totally abnormal immobile postures involving the forelegs and the whole body.
The day before testing, the rats weighing 200-250 g are housed 2 and 2 together in standard macrolon cages.
The testing for the immobile catalepsy syndrome includes 4 tests performed in the following consecutive order: • 1) a vertical wire netting (40x40 cm high).The meshes (openings) of the nettings are approximately 1x2cm. • 2) a horizontal bar 9 cm above the floor • 3) a 9 cm high block (bar) • 4) a 3 cm high block (cork)
The rats were scored for the immobile cataleptic syndrome every 15 min in all 4 tests starting 15 min after the haloperidol injection. The intensity of catalepsy was tested during 10 sec in all tests and evaluated according to a criteria of 10 sec of total immobility for a score of 2.
The rat was placed in the middle of the vertical wire netting, then on the horizontal bar in an extended position with support by both the forelegs on the bar. […]
Experiment [3] relates to dopamine releasing properties. Description: dopamine releasing properties (no method described). The settings on record: in contrast to Win 35,428 and cocaine.

Chain of reuptake of dopamine in synaptosomes of rat forebrain (P23977 whole entry): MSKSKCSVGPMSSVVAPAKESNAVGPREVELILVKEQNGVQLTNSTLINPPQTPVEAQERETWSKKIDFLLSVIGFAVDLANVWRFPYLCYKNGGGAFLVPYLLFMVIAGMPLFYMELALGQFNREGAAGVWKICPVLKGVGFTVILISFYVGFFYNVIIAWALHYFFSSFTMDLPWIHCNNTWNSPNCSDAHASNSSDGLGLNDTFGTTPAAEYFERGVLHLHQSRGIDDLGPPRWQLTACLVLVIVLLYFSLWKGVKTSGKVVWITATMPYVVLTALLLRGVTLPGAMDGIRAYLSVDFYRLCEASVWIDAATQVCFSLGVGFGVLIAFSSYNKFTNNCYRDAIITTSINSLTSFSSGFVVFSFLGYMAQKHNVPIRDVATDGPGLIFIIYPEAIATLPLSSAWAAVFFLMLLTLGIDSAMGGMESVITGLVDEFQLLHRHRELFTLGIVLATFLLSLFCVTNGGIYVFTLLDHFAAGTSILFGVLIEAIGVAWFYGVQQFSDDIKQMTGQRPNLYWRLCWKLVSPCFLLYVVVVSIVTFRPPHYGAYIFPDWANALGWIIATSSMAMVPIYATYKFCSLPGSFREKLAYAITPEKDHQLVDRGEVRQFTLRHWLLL

In experiment [1], `Cc1ccc([C@H]2C[C@@H]3CC[C@H]([C@@H]2c2nc(-c4ccccc4)no2)N3C)cc1` [(1R,2R,3S)-2-(3-Phenyl-1,2,4-oxadiazol-5-yl)-3-(4-methylphenyl)-tropane, hydrochloride] had an IC50 of 960 nM.
Take `Cc1noc([C@@H]2[C@@H](c3ccc(Cl)cc3)C[C@@H]3CC[C@H]2N3C)n1.Cl` [(1R,2R,3S)-2-(3-Methyl-1,2,4-oxadiazol-5-yl)-3-(4-chlorophenyl)-tropane, hydrochloride]: the minimal effective dose in experiment [2] is > 1 mg/kg.
Consider `CN1[C@H]2CC[C@@H]1[C@H](c1nc(-c3ccccc3)no1)[C@@H](c1ccc3ccccc3c1)C2` [(1R,2R,3S)-2-(3-Phenyl-1,2,4-oxadiazol-5-yl)-3-(2-naphthyl)tropane, hydrochloride], for which the IC50 in experiment [1] came to 540 nM.
For `COC(=O)[C@@H]1[C@@H](c2ccc(F)cc2)C[C@@H]2CC[C@H]1N2C` [trans isomer of Win 35,428, (1R,2R,3S)-2-carbomethoxy-3-(4-fluorophenyl)tropane], in experiment [3], the dopamine releasing properties entry is “essentially free of dopamine releasing properties”.
`CN1[C@H]2CC[C@@H]1[C@H](c1nc(-c3ccccc3)no1)[C@@H](c1ccc(Cl)cc1)C2` [(1R,2R,3S)-2-(3-Phenyl1,2,4-oxadiazol-5-yl)-3-(4-chlorophenyl)-tropane, hydrochloride] had an IC50 in experiment [1] of 330 nM.
